Test results taken from patent publication US6124323A, “4-substituted piperidine analogs and their use as subtype selective NMDA receptor antagonists” (Warner-Lambert Company, priority 1998, dated 2000).
Counter-ions that a name gives are not always drawn.

How the values were obtained:
Assay type in all cases: cell-based
[1] = target: T1, NMDA receptor subunits 1A/2B (Rattus norvegicus, UniProt P35439+Q00960); assay: Electrophysiological assay at NMDA receptor subunits expressed in Xenopus oocytes, 1A/2B; conditions: Xenopus oocytes; glutamate 100 μm and glycine 1-100 μm; read-out: Subunits IC50, 1A/2B
T1 construct: expressed in transfected cells; host or cells: Xenopus laevis oocytes (cRNA injection; clones from Dr. P. H. Seeburg)
Protocol: (§1) Many of the properties of native NMDA receptors are seen in recombinant homomeric NR1 receptors. These properties are altered by the NR2 subunits. Recombinant NMDA receptors expressed in Xenopus oocytes have been studied by voltage-clamp recording, as has developmental and regional expression of the mRNAs encoding NMDA receptor subunits. Electrophysiological assays were utilized to characterize the actions of compounds at NMDA receptors expressed in Xenopus oocytes. The compounds were assayed at four subunit combinations of cloned rat NMDA receptors, corresponding to three putative NMDA receptor subtypes [Moriyoshi, et al. Nature 1991, 354, 31-37; Monyer et al, Science 1992, 256, 1217-1221; Kutsuwada et al, Nature 1992, 358, 36-41; Sugihara et al, Biochem. Biophys Res. Commun. 1992, 185, 826-832].
(§2) Electrophysiological Assays at NMDA Receptor Subunits
(§3) Preparation of RNA. cDNA clones encoding the NR1A, NR2A, NR2B, NR2C and NR2D rat NMDA receptor subtypes were provided by Dr. P. H. Seeburg (see, Moriyoshi et al., Nature (Lond.) 354:31-37 (1991); Kutsuwada et al., Nature (Lond.) 358:36-41 (1992) Monyer et al., Science (Washington, D.C.) 256:1217-1221 (1992); Ikeda et al., FEBS Lett. 313:34-38 (1992); Ishii et al., J. Biol. Chem. 268:2836-2843 (1993) for details of these clones or their mouse homologs). The clones were transformed into appropriate host bacteria and plasmid preparations were made with conventional DNA purification techniques. A sample of each clone was linearized by restriction enzyme digestion and cRNA was synthesized with T3 RNA polymerase. The cRNA was diluted to 400 ng/μl and stored in 1 μl aliquots at -80° C. until injection.
(§4) The Xenopus oocyte expression system. Mature female Xenopus laevis were anaesthetized (20-40 min) using 0.15% 3-aminobenzoic acid ethyl ester (MS-222) and 2-4 ovarian lobes were surgically removed. Oocytes at developmental stages IV-VI (Dumont, J. N., J. Morphol. 136:153-180 (1972)), were dissected from the ovary still surrounded by enveloping ovarian tissues. Follicle-enclosed oocytes were micro-injected with 1:1 mixtures of cRNA:NR1A+NR2A, 2B, 2C or 2D; injecting ~2,5, or 20 ng of RNA encoding each receptor subunit. NR1A encoding cRNA was injected alone at ~20 ng. Oocytes were stored in Barth's medium containing (in mM):NaCl, 88; KCl, 1; CaCl2, 0.41; Ca(NO3)2, 0.33; MgSO4, 0.82 NaHCO3, 2.4; HEPES 5, pH 7.4, with 0.1 mg/ml gentamicin sulphate. While oocytes were still surrounded by enveloping ovarian tissues the Barth's medium was supplemented with 0.1% bovine serum. Oocytes were defolliculated 1-2 days following injections by treatment with collagenase (0.5 mg/ml Sigma Type I for 0.5-1 hr) (Miledi and Woodward, J. Physiol. (Lond.) 416:601-621 (1989)) and subsequently stored in serum-free medium.
(§5) Electrical recordings were made using a conventional two-electrode voltage clamp (Dagan TEV-200) over periods ranging between 3-21 days following injection. (Woodward et al., Mol. Pharmacol. 41: 89-103 (1992)). Oocytes were placed in a 0.1 ml recording chamber continuously perfused (5-15 ml min^-1 ) with frog Ringer's solution containing (in mM):NaCl, 115; KCl, 2; CaCl2, 1.8; HEPES, 5; pH 7.4. Drugs were applied by bath perfusion. Using oocytes expressing different subunit combinations of NMDA receptor, NMDA currents were activated by co-application of glutamate (100 μm) and glycine (1-100 μm). Inhibitory potency of the novel antagonists was assessed on responses elicited by fixed concentrations of glutamate and glycine, by measuring reductions in current induced by progressively increasing concentrations of antagonist. Concentration-inhibition curves were fit with equation 1.
(§6) I/Icontrol =1/(1+([antagonist]/10^-pIC50)^n) Eq. 1
(§7) in which Icontrol is the current evoked by agonists alone, pIC50 =-log IC50, IC50 is the concentration of antagonist that produces half maximal inhibition, and n is the slope factor. (De Lean et al., Am. J. Physiol. 235:E97-102 (1978)). […]

[2] = target: T2, NMDA receptor subunits 1A/2C (Rattus norvegicus, UniProt P35439+Q00961); assay: Electrophysiological assay at NMDA receptor subunits expressed in Xenopus oocytes, 1A/2C; conditions: Xenopus oocytes; glutamate 100 μm and glycine 1-100 μm; read-out: Subunits IC50, 1A/2C
T2 construct: expressed in transfected cells; host or cells: Xenopus laevis oocytes (cRNA injection; clones from Dr. P. H. Seeburg)
Protocol: as §1, §2, §3, §4, §5, §6, §7

[3] = target: T3, NMDA receptor subunits 1A/2A (Rattus norvegicus, UniProt P35439+Q00959); assay: Electrophysiological assay at NMDA receptor subunits expressed in Xenopus oocytes, 1A/2A; conditions: glutamate 100 μm and glycine 1-100 μm
T3 construct: expressed in transfected cells; host or cells: Xenopus laevis oocytes (cRNA injection; clones from Dr. P. H. Seeburg)
Protocol: as §1, §2, §3, §4, §5, §6, §7

T3 sequence (Q00959 20-1464 limits assumed, other chains not shown): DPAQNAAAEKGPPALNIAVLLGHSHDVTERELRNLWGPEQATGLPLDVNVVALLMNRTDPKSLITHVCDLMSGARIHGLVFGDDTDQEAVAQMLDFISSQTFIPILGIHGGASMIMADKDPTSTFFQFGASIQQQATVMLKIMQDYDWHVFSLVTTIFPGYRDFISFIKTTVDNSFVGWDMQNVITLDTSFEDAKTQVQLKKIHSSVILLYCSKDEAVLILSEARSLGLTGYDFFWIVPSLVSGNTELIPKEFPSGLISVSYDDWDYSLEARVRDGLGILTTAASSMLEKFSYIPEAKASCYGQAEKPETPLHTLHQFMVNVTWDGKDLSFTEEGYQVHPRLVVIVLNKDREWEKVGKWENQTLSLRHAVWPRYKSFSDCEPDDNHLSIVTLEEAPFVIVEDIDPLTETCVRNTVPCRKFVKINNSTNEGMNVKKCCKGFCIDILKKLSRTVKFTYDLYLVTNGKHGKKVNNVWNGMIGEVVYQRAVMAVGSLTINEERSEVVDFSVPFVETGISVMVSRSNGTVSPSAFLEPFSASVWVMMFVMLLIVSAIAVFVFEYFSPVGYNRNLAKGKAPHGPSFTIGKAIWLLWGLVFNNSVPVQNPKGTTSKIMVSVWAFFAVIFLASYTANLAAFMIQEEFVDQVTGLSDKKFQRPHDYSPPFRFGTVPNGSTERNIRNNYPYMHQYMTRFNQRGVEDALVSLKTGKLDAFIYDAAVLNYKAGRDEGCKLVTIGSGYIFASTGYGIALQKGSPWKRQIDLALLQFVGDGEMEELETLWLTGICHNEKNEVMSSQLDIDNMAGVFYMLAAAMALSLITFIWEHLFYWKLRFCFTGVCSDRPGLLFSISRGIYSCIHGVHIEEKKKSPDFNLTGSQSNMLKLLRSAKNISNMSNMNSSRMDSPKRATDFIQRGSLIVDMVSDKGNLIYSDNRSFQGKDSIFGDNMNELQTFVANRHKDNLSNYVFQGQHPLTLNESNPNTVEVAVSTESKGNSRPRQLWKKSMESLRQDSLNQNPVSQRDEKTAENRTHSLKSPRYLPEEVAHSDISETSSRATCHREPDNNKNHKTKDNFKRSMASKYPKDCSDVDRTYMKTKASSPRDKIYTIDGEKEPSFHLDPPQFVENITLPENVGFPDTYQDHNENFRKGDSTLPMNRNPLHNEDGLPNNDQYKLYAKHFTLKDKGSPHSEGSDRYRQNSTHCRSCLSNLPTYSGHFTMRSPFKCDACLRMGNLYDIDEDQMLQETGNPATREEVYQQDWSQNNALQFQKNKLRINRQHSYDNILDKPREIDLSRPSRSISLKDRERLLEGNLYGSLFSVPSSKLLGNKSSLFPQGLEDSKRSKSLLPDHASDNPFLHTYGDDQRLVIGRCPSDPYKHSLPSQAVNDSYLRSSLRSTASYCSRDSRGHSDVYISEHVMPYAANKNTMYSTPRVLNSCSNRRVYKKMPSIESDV
T2 sequence (Q00961 20-1237, other chains not shown): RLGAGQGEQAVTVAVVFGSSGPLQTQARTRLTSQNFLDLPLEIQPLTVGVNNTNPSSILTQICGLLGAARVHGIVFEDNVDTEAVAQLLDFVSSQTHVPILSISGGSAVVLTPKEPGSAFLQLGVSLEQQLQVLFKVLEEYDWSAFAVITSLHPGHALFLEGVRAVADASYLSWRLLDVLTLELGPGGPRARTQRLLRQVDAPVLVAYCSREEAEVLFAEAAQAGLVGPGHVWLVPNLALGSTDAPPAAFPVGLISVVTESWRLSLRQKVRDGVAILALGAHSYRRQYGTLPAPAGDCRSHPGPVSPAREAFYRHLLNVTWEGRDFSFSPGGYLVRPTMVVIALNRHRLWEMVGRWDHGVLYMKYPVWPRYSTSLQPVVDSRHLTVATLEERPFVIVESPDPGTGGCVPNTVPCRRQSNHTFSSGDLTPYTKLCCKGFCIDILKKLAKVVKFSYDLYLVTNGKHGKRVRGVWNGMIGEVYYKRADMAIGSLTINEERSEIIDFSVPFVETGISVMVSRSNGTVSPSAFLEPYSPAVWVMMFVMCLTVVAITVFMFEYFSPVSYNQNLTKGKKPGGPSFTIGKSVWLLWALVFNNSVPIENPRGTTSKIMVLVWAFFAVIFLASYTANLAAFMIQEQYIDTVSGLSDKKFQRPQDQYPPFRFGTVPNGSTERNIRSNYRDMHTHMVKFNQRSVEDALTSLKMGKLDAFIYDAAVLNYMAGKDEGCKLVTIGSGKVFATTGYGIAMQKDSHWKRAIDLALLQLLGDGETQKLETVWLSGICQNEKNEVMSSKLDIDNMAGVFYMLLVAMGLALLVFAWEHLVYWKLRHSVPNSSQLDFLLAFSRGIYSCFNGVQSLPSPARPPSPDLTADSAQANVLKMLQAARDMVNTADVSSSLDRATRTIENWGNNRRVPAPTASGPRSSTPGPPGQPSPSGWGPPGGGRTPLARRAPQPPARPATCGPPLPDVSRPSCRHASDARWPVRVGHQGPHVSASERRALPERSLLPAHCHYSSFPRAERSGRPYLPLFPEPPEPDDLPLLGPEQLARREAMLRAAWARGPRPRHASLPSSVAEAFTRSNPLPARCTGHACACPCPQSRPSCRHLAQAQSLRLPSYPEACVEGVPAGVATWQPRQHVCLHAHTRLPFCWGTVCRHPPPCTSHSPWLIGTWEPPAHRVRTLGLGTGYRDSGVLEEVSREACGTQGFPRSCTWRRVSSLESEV
T1 sequence (Q00960 27-1482, other chains not shown): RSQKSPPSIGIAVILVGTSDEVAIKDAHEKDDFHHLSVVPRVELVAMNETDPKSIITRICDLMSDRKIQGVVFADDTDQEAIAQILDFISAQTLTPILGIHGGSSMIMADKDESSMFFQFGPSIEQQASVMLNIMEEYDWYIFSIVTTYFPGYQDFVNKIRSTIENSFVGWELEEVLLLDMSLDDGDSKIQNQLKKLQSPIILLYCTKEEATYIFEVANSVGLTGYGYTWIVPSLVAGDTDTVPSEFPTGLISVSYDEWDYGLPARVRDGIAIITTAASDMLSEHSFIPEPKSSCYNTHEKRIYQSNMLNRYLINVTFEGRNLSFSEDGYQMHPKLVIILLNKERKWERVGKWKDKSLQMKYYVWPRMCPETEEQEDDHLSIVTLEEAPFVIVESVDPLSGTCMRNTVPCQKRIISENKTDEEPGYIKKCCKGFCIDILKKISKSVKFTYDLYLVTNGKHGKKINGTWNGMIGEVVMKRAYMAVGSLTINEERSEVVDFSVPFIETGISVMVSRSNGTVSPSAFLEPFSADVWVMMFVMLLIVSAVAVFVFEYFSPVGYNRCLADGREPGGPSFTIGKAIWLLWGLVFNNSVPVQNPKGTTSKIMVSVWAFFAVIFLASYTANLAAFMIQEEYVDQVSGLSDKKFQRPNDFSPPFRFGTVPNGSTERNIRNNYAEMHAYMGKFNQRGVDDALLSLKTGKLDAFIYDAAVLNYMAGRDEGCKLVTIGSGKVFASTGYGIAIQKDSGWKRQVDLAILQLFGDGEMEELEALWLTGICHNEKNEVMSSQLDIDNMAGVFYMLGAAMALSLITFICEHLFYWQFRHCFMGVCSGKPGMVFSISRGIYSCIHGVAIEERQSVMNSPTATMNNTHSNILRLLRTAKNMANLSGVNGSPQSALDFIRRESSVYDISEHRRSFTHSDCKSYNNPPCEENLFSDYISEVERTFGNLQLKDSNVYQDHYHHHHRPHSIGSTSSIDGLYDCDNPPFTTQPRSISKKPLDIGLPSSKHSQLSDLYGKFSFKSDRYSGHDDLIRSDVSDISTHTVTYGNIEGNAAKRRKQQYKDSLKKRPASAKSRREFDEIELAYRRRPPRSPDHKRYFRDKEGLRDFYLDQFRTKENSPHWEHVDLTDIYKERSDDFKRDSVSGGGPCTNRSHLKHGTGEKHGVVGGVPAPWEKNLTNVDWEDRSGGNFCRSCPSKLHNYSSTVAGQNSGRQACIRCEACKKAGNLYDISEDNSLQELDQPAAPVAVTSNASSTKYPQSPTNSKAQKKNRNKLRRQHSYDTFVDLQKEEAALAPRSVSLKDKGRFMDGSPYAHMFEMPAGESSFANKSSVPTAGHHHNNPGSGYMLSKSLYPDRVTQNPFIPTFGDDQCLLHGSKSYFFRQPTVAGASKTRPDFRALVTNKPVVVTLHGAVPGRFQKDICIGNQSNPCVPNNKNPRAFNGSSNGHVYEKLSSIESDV

| Structure (SMILES) | IC50 [1] [µM] | IC50 [2] [µM] | IC50 [3] [µM] |
| --- | --- | --- | --- |
| CC(CCOc1ccccc1)N1CCC(Cc2ccccc2)CC1 (stereo not drawn) [Ex. 41, 4-Benzyl-1-(1-methyl-3-phenoxypropyl)piperidine hydrochloride] | 5 | > 100 | 90 |
| c1ccc(CC2CCN(CCOc3ccc4ncccc4c3)CC2)cc1 [Ex. 50] | 5 | > 100 | 75 |
| c1ccc(CC2CCN(CCOc3cccc4cccnc34)CC2)cc1 [Ex. 51, 4-Benzyl-1-[2-(8-quinolinoxy)ethyl]piperidine] | 5 | > 100 | 80 |
| Nc1c(OCCN2CCC(Cc3ccccc3)CC2)cccc1[N+](=O)[O-] [Ex. 52, 4-Benzyl-1-[2-(2-amino-3-nitrophenoxy)ethyl]piperidine] | 9.5 | > 100 | 60 |
| O=c1[nH]c2cccc(OCCN3CCC(Cc4ccccc4)CC3)c2[nH]c1=O [Ex. 54, 4-Benzyl-1-[2-(2,3-dioxoquinoxalin-5-oxy)ethyl]piperidine] | 3.6 | > 100 | 60 |
| Nc1ccc(OCCN2CCC(Cc3ccccc3)CC2)cc1[N+](=O)[O-] [Ex. 56, 4-Benzyl-1-[2-(4-amino-3-nitrophenoxy)ethyl]piperidine] | 1.1 | > 100 | 90 |
| O=[N+]([O-])c1cccc(OCCN2CCC(Cc3ccccc3)CC2)c1 [Ex. 62, 4-Benzyl-1-[2-(3-nitrophenoxy)ethyl]piperidine] | 6 | > 100 | 80 |
| COc1cccc(OCCN2CCC(Cc3ccccc3)CC2)c1 [Ex. 69, 4-Benzyl-1-[2-(3-methoxyphenoxy)ethyl]piperidine] | 0.43 | > 100 | 20 |
| O=c1[nH]c2ccc(OCCN3CCC(Cc4ccc(Cl)cc4)CC3)cc2[nH]1 [Ex. 80, 4-(4-Chlorobenzyl)-1-[2-(2-oxobenzimidazol-5-oxy)ethyl]piperidine] | 0.025 | 70 | 16 |
| c1ccc(COc2ccc(OCCN3CCC(Cc4ccccc4)CC3)cc2)cc1 [Ex. 98, 1-[2-(4-Benzyloxyphenoxy)ethyl]-4-benzylpiperidine hydrochloride] | 100 | 80 | 80 |
| Oc1ccc(CCCN2CCC(Cc3ccccc3)CC2)cc1 [Ex. 106, 1-[3-(4-Hydroxyphenyl)propyl]-4-benzylpiperidine hydrochloride] | 0.02 | 260 | 90 |
| Oc1ccc(CCCN2CCC(Cc3ccc(Cl)cc3)CC2)cc1 [Ex. 107, 1-[3-(4-Hydroxyphenyl)propyl]-4-(4-chlorobenzyl)piperidine hydrochloride] | 0.03 | 270 | 60 |
| Oc1ccc(CCN2CCC(Cc3ccccc3)CC2)cc1 [Ex. 108, 1-[2-(4-Hydroxyphenyl)ethyl]-4-benzylpiperidine hydrochloride] | 0.25 | > 300 | 62 |
| Fc1ccc(OCCN2CCC(Cc3cccc(F)c3)CC2)cc1 [Ex. 113, 4-(3-Fluorobenzyl)-1-(2-(4-fluorophenoxy)ethyl)piperidine hydrochloride] | 30 | 200 | 200 |
| Oc1ccc(OCCN2CCC(c3ccccc3)CC2)cc1 [Ex. 127, 1-[2-(4-Hydroxyphenoxy)ethyl]-4-phenylpiperidine hydrochloride] | 5 | > 300 | 70 |
| c1ccc(CC2CCN(CCSc3ccccc3)CC2)cc1 [Ex. 144, 4-Benzyl-1-(2-thiophenoxyethyl)piperidine hydrochloride] | 1.6 | > 300 | > 300 |
| c1ccc(CC2CCN(CCOc3ccc4c(c3)OCO4)CC2)cc1 [Ex. 148, 1-[2-(3,4-Methylenedioxyphenoxy)ethyl]-4-benzylpiperidine hydrochloride] | 3.8 | 135 | 105 |
| Cc1cc(OCCN2CCC(Cc3ccc(F)cc3)CC2)ccc1O [Ex. 152, 1-[2-(4-Hydroxy-3-methylphenoxy)ethyl]-4-(4-fluorobenzyl)piperidine hydrochloride] | 0.04 | 200 | 90 |
| Cc1ccc(CC2CCN(CCOc3ccc(O)c(C)c3)CC2)cc1 [Ex. 153, 1-[2-(4-Hydroxy-3-methylphenoxy)ethyl]-4-(4-methylbenzyl)piperidine hydrochloride] | 0.04 | 70 | 65 |
| Cc1ccc(CC2(O)CCN(CCOc3ccc(O)c(C)c3)CC2)cc1 [Ex. 155, 1-[2-(4-hydroxy-3-methylphenoxy)ethyl]-4-hydroxy-4-(4-methylbenzyl)piperidine hydrochloride] | 0.03 | > 300 | 170 |
| Oc1cccc(OCCN2CCC(Cc3ccc(F)cc3)CC2)c1 [Ex. 159, 4-(4-Fluorobenzyl)-1-[2-(3-Hydroxyphenoxy)ethyl]piperidine hydrochloride] | 0.5 | 140 | 130 |
| Cc1ccc(CC2CCN(CCOc3cccc(O)c3)CC2)cc1 [Ex. 160, 1-[2-(3-Hydroxyphenoxy)ethyl]-4-(4-methylbenzyl)piperidine hydrochloride] | 0.2 | 120 | 60 |
| Cc1ccc(CC2CCN(CCOc3ccccc3O)CC2)cc1 [Ex. 161, 1-[2-(2-Hydroxyphenoxy)ethyl]-4-(4-methylbenzyl)piperidine hydrochloride] | 0.04 | 170 | 85 |
| CN(CCN1CCC(Cc2ccccc2)CC1)c1ccc(O)cc1 [Ex. 163, 4-Benzyl-1-(2-(N-methyl-4-hydroxyanilino)ethyl)piperidine dihydrochloride] | 0.1 | > 300 | 35 |
| N=c1[nH]c2ccc(OCCN3CCC(Cc4ccccc4)CC3)cc2[nH]1 [Ex. 172, 4-Benzyl-1-(2-(2-iminobenzimidazol-5-oxy)ethyl)piperidine] | 0.11 | 50 | 140 |
| Oc1ccc2cc(OCCN3CCC(Cc4ccc(F)cc4)CC3)ccc2c1 [Ex. 191, 4-(4-Fluorobenzyl)-1-(2-(2-hydroxynaphth-6-oxy)ethyl)piperidine] | 0.1 | > 300 | 25 |
| Cc1ccc(CC2CCN(CCOc3ccc4cc(O)ccc4c3)CC2)cc1 [Ex. 192, 4-(4-Methylbenzyl)-1-(2-(2-hydroxynaphth-6-oxy)ethyl)piperidine] | 0.1 | > 300 | > 300 |
| O=C1Cc2cc(OCCN3CCC(Cc4ccc(F)cc4)CC3)ccc2N1 [Ex. 195, 4-(4-Fluorobenzyl)-1-(2-(2-oxo-1,3-dihydroindol-5-oxy)ethyl)piperidine] | 0.07 | > 300 | > 300 |
